Reference: US20250134928A1, “METHODS FOR IDENTIFYING AND USING ALLOGENEIC TUMOR INFILTRATING LYMPHOCYTES TO TREAT CANCER” (OBSIDIAN THERAPEUTICS, INC., priority 2022, published 2025)

System: regulated mbIL15 TILs
Assay: ACZ dose response of IL15 expression and signaling, phospho-flow cytometry
Assay type: cell-based, human
Conditions: 18 hours, 0.1-100 μM ACZ
Description: Pre-REP TILs were prepared similarly to the methods of Example 1-3 and 9, and unengineered and mbIL15 TIL generated accordingly as described in Examples 1-3 and 9. Engagement of the IL15 signaling pathway results in phosphorylation of signal transducers downstream, including the transcription factor protein STAT5 and ribosomal protein S6. […] Next, the regulated mbIL15 TILs were regulated for 18 hours in the presence of a range of concentrations of ACZ including 0.1, 1, 2.5, 5, 10, 25, 100 μM, as well as vehicle control. The regulated mbIL15 TILs were then collected for staining and FACS analysis.
Briefly, cells were stained using antibodies for CD3, CD4, CD8, IL15 and a Live/Dead marker. Then cells were fixed in 2% formaldehyde (BD Cytofix) and permeabilized using a methanol-based buffer (BD Phospho Perm III Buffer) before staining with antibodies specific for phosphorylated STAT5 (Biolegend) and S6 (Cell Signaling Technology). Cells were acquired on the BD Symphony and analyzed using FlowJo software.

CC(=O)Nc1nnc(S(N)(=O)=O)s1 [ACZ, acetazolamide]
staining intensity of pSTAT5 and pS6: increased with higher concentrations of ACZ
ACZ concentration at which mbIL15 expression plateaus (four donors): 10 to 25 µM
